# Experimental data from ChEMBL document CHEMBL1201862, “PubChem BioAssay data set” (2004).
# Activity calls are given as the source filed them.
# Key:
# Cytochrome P450 2C9 = Cytochrome P450 2C9 (Homo sapiens, UniProt P11712)
# [1] = Shn3 3'UTR reporter inhibitors, dose response, cell-based, Clone20 osteoblasts, firefly luciferase, cherry-picked (AID 624132); assay type: functional;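 note: firefly luciferase luminescence from reporter carrying the Shn3 3'UTR in osteoblasts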
# [2] = HepG2 cell cytotoxicity, dose response, cytotoxicity control for Shn3 inhibitor project, CellTiter-Glo, cherry-picked (AID 624134); assay type: functional, cell-based
# [3] = control 3'UTR Renilla luciferase suppression, dose response, counter-screen for Shn3 inhibitor project, cell-based, Clone20-Shn3RL, cherry-picked (AID 624133); assay type: functional
# Cytochrome P450 2D6 = Cytochrome P450 2D6 (Homo sapiens, UniProt P10635);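 note: CYP2D6 member of a cytochrome P450 panel assay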
# Chain of Cytochrome P450 2D6 (P10635 whole entry): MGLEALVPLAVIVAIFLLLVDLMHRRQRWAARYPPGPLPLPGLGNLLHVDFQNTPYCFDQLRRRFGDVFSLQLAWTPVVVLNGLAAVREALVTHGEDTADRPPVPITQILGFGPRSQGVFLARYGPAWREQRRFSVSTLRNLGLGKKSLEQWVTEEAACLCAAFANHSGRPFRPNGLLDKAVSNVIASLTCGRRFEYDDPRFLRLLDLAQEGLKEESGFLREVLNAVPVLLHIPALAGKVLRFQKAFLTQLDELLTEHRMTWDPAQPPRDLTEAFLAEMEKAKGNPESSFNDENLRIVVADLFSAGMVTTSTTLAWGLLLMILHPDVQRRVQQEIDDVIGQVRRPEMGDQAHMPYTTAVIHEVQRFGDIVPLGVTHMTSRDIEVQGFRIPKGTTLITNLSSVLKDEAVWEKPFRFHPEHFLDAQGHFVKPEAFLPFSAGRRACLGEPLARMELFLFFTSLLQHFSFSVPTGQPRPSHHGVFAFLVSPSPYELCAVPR
# Cysteine protease ATG4B = target: T1, Cysteine protease ATG4B (Homo sapiens, UniProt Q9Y4P1); assay type: functional;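 note: Fluorescence-based dose-response confirmation assay measuring inhibition of ATG4B activity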
# T1 sequence (Q9Y4P1 whole entry): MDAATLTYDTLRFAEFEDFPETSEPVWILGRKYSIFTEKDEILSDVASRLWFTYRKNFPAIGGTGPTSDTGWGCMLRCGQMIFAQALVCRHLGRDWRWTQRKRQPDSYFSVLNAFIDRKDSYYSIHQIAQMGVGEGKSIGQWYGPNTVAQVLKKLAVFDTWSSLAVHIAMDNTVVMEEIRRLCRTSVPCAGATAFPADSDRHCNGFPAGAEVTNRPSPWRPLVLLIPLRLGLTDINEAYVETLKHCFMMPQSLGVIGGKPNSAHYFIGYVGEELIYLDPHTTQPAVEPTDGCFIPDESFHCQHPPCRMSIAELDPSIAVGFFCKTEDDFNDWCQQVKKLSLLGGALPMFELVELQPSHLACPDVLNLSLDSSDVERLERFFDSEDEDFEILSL
# [4] = target: T2, Replicative DNA helicase DnaB (Mycobacterium tuberculosis, UniProt P9WMR3); assay: DnaB intein splicing inhibitors, dose response, biochemical, cell-free fluorescence (AID 449749); assay type: functional
# T2 sequence (P9WMR3 whole entry): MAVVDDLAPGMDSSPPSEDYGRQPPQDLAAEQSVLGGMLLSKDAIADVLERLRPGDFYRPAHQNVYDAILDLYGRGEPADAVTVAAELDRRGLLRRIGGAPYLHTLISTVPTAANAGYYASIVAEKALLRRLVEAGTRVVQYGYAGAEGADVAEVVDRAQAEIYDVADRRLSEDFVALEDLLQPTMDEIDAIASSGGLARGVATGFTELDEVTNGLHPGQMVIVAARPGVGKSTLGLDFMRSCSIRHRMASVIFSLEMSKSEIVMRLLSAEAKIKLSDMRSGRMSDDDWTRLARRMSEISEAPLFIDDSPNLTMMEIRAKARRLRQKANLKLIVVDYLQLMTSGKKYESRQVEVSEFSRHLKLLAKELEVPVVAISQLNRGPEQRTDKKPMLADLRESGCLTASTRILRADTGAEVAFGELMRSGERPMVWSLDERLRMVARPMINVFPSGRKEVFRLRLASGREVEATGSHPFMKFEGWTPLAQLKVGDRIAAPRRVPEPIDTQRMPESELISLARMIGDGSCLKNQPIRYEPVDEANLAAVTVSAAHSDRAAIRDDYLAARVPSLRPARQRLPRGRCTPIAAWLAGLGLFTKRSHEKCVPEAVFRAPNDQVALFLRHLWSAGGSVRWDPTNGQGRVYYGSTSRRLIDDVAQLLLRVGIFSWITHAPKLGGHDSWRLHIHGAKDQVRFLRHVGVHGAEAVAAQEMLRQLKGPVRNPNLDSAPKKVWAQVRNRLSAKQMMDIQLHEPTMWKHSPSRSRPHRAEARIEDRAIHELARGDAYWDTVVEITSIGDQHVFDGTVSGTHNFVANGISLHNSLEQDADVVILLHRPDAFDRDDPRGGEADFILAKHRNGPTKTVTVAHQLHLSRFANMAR
# Phospholipase A2 = Phospholipase A2 (Homo sapiens, UniProt P04054); assay type: functional;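 note: confirmatory dose-response counterscreen on phospholipase A2, testing hits that came from an ultra-high-throughput screen for ATG4B inhibitors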
# Chain of Phospholipase A2 (P04054 whole entry): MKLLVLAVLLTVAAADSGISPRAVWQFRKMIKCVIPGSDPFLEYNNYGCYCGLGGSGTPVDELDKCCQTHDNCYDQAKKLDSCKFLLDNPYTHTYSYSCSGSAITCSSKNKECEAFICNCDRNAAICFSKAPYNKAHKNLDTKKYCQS
# Protein RecA = target: T3, Protein RecA (Mycobacterium tuberculosis, UniProt P9WHJ3); assay: Fluorescence Cell-Free Homogeneous Dose Retest to Identify Inhibitors of RecA-Intein Splicing Activity. [Related pubchem assays (depositor defined):AID2097, AID2223, AID489010, AID492950]; assay type: functional
# T3 sequence (P9WHJ3 whole entry): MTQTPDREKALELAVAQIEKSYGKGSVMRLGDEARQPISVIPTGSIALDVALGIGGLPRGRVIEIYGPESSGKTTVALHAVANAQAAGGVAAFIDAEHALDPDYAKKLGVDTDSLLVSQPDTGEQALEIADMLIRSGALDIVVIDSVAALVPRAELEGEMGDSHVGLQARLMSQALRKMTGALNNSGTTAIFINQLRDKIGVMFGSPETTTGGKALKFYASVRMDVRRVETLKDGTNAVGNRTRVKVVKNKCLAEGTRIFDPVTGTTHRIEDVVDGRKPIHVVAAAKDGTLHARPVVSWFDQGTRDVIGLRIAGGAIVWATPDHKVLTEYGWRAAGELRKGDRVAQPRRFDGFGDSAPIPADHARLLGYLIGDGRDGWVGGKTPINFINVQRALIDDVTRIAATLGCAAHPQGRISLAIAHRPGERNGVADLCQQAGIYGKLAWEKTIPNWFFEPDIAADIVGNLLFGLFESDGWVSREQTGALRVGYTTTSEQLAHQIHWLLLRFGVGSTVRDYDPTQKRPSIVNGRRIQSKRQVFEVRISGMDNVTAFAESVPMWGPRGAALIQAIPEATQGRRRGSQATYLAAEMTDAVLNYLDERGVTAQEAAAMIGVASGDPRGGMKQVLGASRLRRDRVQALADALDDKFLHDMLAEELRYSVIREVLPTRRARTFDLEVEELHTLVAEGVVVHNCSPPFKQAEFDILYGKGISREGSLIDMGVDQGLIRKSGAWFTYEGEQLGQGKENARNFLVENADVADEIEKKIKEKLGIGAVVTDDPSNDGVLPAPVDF
# Large T antigen = Large T antigen (Simian virus 40, UniProt P03070); assay type: functional, Betapolyomavirus macacae;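 note: Confirmatory-stage PubChem screen for compounds that inhibit SV40 T antigen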
# Chain of Large T antigen (P03070 whole entry): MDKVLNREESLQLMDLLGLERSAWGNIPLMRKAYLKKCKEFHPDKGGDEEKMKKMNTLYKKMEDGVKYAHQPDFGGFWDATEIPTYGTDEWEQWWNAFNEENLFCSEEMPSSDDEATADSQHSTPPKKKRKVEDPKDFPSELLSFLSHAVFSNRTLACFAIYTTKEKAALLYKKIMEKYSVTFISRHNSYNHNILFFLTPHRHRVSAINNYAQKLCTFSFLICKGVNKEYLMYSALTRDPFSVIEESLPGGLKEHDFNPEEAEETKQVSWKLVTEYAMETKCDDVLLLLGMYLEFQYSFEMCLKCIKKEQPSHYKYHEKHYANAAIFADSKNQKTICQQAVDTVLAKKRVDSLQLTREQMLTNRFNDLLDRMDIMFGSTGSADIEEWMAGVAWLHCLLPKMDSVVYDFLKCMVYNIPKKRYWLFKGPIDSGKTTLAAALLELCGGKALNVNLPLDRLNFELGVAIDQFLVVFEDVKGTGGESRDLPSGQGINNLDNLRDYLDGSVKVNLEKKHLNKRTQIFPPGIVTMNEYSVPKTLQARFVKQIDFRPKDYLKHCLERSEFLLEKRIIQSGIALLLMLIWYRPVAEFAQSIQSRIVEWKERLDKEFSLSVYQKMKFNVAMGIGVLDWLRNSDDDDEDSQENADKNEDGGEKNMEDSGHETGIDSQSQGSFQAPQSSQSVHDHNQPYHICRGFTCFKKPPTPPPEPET
# [5] = target: FAD-linked sulfhydryl oxidase ALR (Homo sapiens, UniProt P55789); assay: inhibitors of human ALR sulfhydryl oxidase, dose response, biochemical, H2O2 detection, luminescence, cherry-pick (AID 493248)
# [6] = microbe, parasite or virus in culture; assay type: functional; details: Mycobacterium tuberculosis
# [7] = growth suppression of PTEN-null colon cells, dose response, cell-based, HCT116 PTEN knockout (AID 1047); assay type: functional;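 note: HCT116 colon tumor cells with PTEN knocked out; cells exposed to compound for 60 hours before readout; potency for loss of cell viability measured by luminescence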
# [8] = growth suppression of beta-catenin-knockout colon cells, dose response, cell-based, HCT116, human colon tumor (AID 1045); assay type: functional;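 note: HCT116 colon tumor cells with beta catenin knocked out; cells exposed to compound for 60 hours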
# Paired box protein Pax-8 = Paired box protein Pax-8 (Homo sapiens, UniProt Q06710); assay: inhibitors of PAX8-driven TPO luciferase reporter, dose response, RMG-I cells, cherry-pick (AID 687027); assay type: functional, cell-based;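 note: luciferase reporter driven by Pax8 target thyroperoxidase promoter measured by SteadyGlo luminescence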
# [9] = inhibitors of intracellular T. cruzi replication, confirmation, NIH3T3 host cells, beta-gal luminescence (AID 2044); assay type: functional, cell-based;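 note: intracellular parasites grown in NIH/3T3 mouse fibroblasts as host cells; luminescent beta-galactosidase reporter signal from transgenic T. cruzi replicating inside host cells; inhibitors lower the luminescence signal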
# [10] = cytotoxicity toward NIH3T3 fibroblasts, dose response, counter-screen, cell-based, ATP luminescence, mouse fibroblasts (AID 2010); assay type: functional;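 note: cells exposed to compound for about 90 hours before reading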
# Vero = assay: cells; assay type: functional; details: Chlorocebus sabaeus
# [11] = target: T4, Polyadenylate-binding protein 1 (Homo sapiens, UniProt P11940); assay: PABP1 MLLE–PAM2 interaction inhibitors, dose response, miRNA deadenylation inhibitor project, biochemical, fluorescence polarization, Cy5-PAM2 peptide, secondary (AID 602260); assay type: functional; details: read-out: IC50_Mean
# T4 sequence (P11940 whole entry): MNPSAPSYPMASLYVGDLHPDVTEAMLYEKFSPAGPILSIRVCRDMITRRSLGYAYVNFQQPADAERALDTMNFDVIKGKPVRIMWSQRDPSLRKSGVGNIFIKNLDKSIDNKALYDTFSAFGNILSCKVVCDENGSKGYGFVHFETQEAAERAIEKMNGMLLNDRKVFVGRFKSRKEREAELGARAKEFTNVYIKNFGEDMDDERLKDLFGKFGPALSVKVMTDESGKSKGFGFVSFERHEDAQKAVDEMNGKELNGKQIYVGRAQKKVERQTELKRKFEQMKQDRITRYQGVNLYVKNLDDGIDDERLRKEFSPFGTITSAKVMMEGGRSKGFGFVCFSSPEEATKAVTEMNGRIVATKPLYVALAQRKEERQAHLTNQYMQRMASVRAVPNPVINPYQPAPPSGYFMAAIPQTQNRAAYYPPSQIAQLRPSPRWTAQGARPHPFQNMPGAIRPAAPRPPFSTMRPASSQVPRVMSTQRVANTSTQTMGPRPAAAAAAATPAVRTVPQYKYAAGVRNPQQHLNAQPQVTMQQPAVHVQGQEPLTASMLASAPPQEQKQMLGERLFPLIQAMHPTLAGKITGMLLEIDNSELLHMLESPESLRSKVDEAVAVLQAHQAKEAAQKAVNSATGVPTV
# [12] = target: T4, Polyadenylate-binding protein 1; assay: PABP1 MLLE–PAM2 binding inhibitor potency, dose response, biochemical, fluorescence polarization, FITC-PAM2 peptide (AID 602259); assay type: functional; details: read-out: IC50_Mean
# Fatty acid synthase [13] = target: T5, Fatty acid synthase (Homo sapiens, UniProt P49327); assay: FAS thioesterase domain inhibitors, dose response, biochemical, endpoint fluorescence intensity, uHTS hits (AID 624327); assay type: functional;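 note: fluorescence from hydrolysis of an O-methyl fluorescein acyl ester substrate by the enzyme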
# T5 sequence (P49327 whole entry, the tested form may be a part): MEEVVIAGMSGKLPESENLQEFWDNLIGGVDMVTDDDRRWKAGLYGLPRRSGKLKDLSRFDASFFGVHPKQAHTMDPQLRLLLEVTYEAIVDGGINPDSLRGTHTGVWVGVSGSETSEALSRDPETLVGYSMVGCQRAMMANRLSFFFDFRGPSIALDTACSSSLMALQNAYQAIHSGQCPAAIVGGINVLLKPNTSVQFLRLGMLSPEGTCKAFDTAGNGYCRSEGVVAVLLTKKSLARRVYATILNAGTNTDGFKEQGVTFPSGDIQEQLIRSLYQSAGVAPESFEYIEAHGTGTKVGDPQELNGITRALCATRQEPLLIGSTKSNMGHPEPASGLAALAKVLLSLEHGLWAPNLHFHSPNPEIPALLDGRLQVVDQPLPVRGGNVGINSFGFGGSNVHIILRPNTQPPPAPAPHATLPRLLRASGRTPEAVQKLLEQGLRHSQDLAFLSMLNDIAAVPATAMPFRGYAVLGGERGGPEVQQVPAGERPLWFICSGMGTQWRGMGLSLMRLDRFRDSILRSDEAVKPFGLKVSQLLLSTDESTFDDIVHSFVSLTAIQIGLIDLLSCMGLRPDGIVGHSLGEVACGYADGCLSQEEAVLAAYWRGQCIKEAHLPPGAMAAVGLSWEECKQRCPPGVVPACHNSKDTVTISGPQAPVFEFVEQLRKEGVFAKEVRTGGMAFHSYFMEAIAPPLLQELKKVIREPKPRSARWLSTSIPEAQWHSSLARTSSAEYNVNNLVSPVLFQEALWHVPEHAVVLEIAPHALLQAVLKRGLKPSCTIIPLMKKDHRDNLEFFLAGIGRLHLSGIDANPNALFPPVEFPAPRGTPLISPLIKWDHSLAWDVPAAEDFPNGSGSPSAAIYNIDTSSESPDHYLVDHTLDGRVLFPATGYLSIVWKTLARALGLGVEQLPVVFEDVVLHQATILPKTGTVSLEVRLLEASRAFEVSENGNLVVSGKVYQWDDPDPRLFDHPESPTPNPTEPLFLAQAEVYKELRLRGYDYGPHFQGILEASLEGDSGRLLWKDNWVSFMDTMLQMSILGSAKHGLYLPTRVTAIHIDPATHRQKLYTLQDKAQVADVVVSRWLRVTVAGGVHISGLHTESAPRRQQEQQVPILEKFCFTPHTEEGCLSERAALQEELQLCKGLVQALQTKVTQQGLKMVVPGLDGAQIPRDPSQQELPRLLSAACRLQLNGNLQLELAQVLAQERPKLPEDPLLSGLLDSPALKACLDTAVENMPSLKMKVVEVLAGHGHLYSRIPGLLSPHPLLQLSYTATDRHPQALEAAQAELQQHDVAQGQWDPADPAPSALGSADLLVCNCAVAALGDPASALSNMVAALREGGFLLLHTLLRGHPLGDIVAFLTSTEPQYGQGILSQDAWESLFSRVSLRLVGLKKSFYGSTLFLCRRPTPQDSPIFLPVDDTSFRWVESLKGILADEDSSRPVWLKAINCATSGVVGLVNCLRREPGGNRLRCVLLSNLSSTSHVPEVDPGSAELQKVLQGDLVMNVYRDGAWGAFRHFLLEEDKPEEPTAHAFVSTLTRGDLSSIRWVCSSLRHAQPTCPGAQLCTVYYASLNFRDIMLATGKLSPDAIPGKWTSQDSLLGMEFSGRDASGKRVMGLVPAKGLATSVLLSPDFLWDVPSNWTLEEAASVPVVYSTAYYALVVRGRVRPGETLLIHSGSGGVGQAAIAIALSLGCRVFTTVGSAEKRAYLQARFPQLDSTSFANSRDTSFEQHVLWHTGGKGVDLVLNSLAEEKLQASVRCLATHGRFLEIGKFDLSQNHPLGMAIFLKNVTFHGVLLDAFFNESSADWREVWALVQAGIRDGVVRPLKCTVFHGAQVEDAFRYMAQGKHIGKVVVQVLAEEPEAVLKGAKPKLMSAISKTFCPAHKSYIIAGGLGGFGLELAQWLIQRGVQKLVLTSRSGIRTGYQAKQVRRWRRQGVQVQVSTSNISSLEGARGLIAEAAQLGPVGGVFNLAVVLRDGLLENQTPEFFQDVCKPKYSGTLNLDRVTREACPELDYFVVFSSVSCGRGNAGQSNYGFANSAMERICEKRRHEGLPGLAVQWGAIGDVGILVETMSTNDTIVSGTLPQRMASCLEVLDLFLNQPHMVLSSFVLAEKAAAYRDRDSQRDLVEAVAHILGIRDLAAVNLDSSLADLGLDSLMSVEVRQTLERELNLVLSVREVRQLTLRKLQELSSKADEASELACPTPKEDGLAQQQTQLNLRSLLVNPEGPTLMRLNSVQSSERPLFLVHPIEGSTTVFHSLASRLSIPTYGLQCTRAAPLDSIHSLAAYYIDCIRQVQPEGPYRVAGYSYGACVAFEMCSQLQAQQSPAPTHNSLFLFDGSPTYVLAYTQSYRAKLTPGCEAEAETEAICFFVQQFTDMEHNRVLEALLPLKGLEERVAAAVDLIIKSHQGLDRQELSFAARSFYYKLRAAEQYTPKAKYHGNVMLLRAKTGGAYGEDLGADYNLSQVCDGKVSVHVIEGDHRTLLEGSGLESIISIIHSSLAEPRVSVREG
# Fatty acid synthase [14] = target: T5, Fatty acid synthase; assay: FAS thioesterase domain inhibitors, dose response, biochemical, kinetic fluorescence intensity (AID 624326); assay type: functional;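 note: rate of fluorescence rise from hydrolysis of a fluorogenic O-methyl fluorescein ester substrate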
# [15] = target: Glyceraldehyde-3-phosphate dehydrogenase (Homo sapiens, UniProt P04406)
# Chain of Cytochrome P450 2C9 (P11712 whole entry): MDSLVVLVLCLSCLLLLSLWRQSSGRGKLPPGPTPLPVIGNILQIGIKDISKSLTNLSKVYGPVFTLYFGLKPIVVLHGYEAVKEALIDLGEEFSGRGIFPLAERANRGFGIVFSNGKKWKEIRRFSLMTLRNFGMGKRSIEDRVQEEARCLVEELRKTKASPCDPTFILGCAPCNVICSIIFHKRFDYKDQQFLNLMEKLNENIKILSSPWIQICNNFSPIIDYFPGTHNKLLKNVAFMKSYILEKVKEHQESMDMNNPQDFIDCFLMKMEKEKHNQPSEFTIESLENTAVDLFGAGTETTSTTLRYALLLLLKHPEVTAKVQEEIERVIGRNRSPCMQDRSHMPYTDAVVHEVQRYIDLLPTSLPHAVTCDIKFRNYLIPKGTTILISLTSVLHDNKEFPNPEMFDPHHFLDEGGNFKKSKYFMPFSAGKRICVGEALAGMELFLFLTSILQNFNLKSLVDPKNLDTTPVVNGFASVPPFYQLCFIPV
compound,measurement,setting,value
Cc1cc(=O)oc2cc(O)ccc12 [HYMECROMONE],AC50,Cytochrome P450 2C9,inconclusive
O=C1OC[C@H](Cc2ccc3c(c2)OCO3)/C1=C\c1ccc2c(c1)OCO2 [SAVININ],AC50,[1],2.66 µM (active)
same,AC50,[2],59.8 µM (active)
same,AC50,[3],23.1 µM (active)
COc1ccc(CNc2cc(-c3cccc(NS(C)(=O)=O)c3)ncn2)c(OC)c1,AC50,Cytochrome P450 2D6,39.8 µM (inconclusive)
same,AC50,Cytochrome P450 2C9,inconclusive
CCCCOc1ccc(CN2CCC(O)CC2)cc1,AC50,Cytochrome P450 2D6,0.2 µM (inconclusive)
same,AC50,Cytochrome P450 2C9,inconclusive
NC(c1csc(NC(=O)Nc2cccc(C(F)(F)F)c2)n1)C1CCCCC1 (stereo not drawn),AC50,[1],4.81 µM (active)
same,AC50,[2],11.3 µM (active)
same,AC50,[3],7.42 µM (active)
Cc1ccc(-c2[nH]nc3c2C(c2ccc(OC(=O)N4CCOCC4)cc2)C(C#N)=C(N)O3)cc1 (stereo not drawn),IC50,Cysteine protease ATG4B,15.8 µM (active)
same,AC50,[4],4.61 µM (active)
same,IC50,Phospholipase A2,11.7 µM (active)
same,EC50,Protein RecA,1.18 µM (active)
COc1ccc(/C=C/C(=O)Nc2nc(C)cc(C)n2)cc1OC,AC50,Cytochrome P450 2C9,inconclusive
COC(=O)N/N=C/c1cn(CCCOc2ccc(C)cc2)c2ccccc12,IC50,Cysteine protease ATG4B,10.3 µM (active)
same,IC50,Phospholipase A2,7.39 µM (active)
Cn1c(=O)oc2cc(S(=O)(=O)Nc3ccc(O)cc3)ccc21,IC50,Large T antigen,4.64 µM (active)
same,AC50,[5],1.49 µM (active)
C=C1C(=O)[C@@]23[C@H](O)C[C@@H]4C(C)(C)CC[C@H](O)[C@@]4(C)[C@@H]2CC[C@@H]1[C@H]3O [KAMEBANIN],CC50,[6],5.73 µM (active)
same,EC50,[7],1.17 µM (active)
same,EC50,[8],1.02 µM (active)
same,AC50,[1],1.29 µM (active)
same,AC50,[2],26.3 µM (active)
same,AC50,[3],4.85 µM (active)
same,AC50,Paired box protein Pax-8,1.16 µM (active)
Cc1nn(-c2ccccc2)c(S)c1/C=N/c1ccc([N+](=O)[O-])cc1,IC50,Large T antigen,25.7 µM (active)
CNc1ncnc(Sc2ccc(Cl)cc2)c1[N+](=O)[O-],EC50,[9],3.2 µM (active)
same,EC50,[10],> 60 µM (not active)
same,CC50,Vero,> 25 µM (active)
O=C(COc1cccc2ccccc12)NNC(=O)c1cccs1,AC50,Cytochrome P450 2C9,inconclusive
CCCCOC(=O)CNc1nnc(SCC(=O)OCC)nc1O,AC50,[4],2.66 µM (active)
same,EC50,Protein RecA,4.56 µM (active)
same,IC50,[11],> 66 µM (inactive)
same,IC50,[12],> 66 µM (inactive)
same,IC50,Fatty acid synthase [13],7.5 µM (active)
same,IC50,Fatty acid synthase [14],9.16 µM (active)
Cc1cccc(NC(S)=NNC(=O)c2csc3c2CCCC3)c1,IC50,Cysteine protease ATG4B,11.2 µM (active)
same,IC50,Phospholipase A2,13.2 µM (active)
same,AC50,Cytochrome P450 2D6,25.1 µM (inconclusive)
same,AC50,Cytochrome P450 2C9,inconclusive
O=[N+]([O-])c1cc(CS(=O)(=O)Oc2ccc(Cl)cc2)c(O)c([N+](=O)[O-])c1,IC50,Fatty acid synthase [13],16.1 µM (active)
same,IC50,Fatty acid synthase [14],41.7 µM (inactive)
O=C(O)Cc1ccc(/C(=N\O)c2cccs2)s1,IC50,[15],> 100 µM (not active)
COc1cc(C2C3=C(COC3=O)Oc3cc4c(cc32)OCO4)cc(OC)c1OC (stereo not drawn),CC50,Vero,< 0.05 µM (active)
O=C(c1ccc(-n2c(SCc3cccc(F)c3)nc3ccccc3c2=O)cc1)N1CCOCC1,IC50,Cysteine protease ATG4B,10.1 µM (active)
same,IC50,Phospholipase A2,8.49 µM (active)
Cc1ccc(NC(=O)CSc2nn(-c3ccccc3)c(=S)s2)cc1S(=O)(=O)N(C)C,AC50,[1],5.82 µM (active)
same,AC50,[2],45.6 µM (active)
same,AC50,[3],55.6 µM (active)
COc1cccc(N2C(=O)NC(=O)/C(=C\NCCN3CCOCC3)C2=O)c1,AC50,Cytochrome P450 2C9,inconclusive
COc1cccc(CNc2ccc3[nH]c(O)nc3c2)c1OCc1ccccc1,IC50,Large T antigen,16.5 µM (active)
COc1cc(C(=O)N/N=C(\C)Cn2nc([N+](=O)[O-])cc2C)ccc1O,IC50,Large T antigen,29.3 µM (active)
CC(C)(C)c1ccc(C(=O)C2CCCN(C(=O)c3ccccn3)C2)cc1 (stereo not drawn),IC50,Cysteine protease ATG4B,15.1 µM (active)
same,IC50,Phospholipase A2,11.5 µM (active)
CCOC(=O)c1c(NC(=O)COC(=O)c2ccc(S(=O)(=O)C(F)F)cc2)sc(C(=O)N(C)C)c1C,CC50,Vero,> 25 µM (active)
COc1cc(/C=C2\C(=O)NN(c3ccccc3)C2=O)ccc1OCC(N)=O,IC50,Large T antigen,> 100 µM (active)
